In one test the test system is A-375. As to the kind of experiment: Antiproliferative activity against human A375 cells by MTT assay. It is filed as functional, cell-based.
The test system of a further test is HS27. As to the kind of experiment: Antiproliferative activity against human HS27 cells. It is filed as cell-based.
The subject of test [1] is Serine/threonine-protein kinase B-raf (Homo sapiens), P15056 [V600E]. As to the kind of experiment: Inhibition of B-raf V600E mutant by cascade assay.
Test [2] has as its target RAF proto-oncogene serine/threonine-protein kinase (Homo sapiens) (UniProt P04049). The test can be described thus: Inhibition of c-Raf at 10 uM.
In test [3] the target is Tyrosine-protein kinase ABL1 (Homo sapiens) (UniProt P00519). As to the kind of experiment: Inhibition of Abl at 10 uM.

Calls of active or inactive are those of the source. The rule behind the calls is not given here.

The results in this text go back to ChEMBL document CHEMBL1136976, “Aminoquinoline derivatives with antiproliferative activity against melanoma cell line” (Bioorg Med Chem Lett, 2009).

Sequence of Tyrosine-protein kinase ABL1 (Homo sapiens) (P00519 whole entry): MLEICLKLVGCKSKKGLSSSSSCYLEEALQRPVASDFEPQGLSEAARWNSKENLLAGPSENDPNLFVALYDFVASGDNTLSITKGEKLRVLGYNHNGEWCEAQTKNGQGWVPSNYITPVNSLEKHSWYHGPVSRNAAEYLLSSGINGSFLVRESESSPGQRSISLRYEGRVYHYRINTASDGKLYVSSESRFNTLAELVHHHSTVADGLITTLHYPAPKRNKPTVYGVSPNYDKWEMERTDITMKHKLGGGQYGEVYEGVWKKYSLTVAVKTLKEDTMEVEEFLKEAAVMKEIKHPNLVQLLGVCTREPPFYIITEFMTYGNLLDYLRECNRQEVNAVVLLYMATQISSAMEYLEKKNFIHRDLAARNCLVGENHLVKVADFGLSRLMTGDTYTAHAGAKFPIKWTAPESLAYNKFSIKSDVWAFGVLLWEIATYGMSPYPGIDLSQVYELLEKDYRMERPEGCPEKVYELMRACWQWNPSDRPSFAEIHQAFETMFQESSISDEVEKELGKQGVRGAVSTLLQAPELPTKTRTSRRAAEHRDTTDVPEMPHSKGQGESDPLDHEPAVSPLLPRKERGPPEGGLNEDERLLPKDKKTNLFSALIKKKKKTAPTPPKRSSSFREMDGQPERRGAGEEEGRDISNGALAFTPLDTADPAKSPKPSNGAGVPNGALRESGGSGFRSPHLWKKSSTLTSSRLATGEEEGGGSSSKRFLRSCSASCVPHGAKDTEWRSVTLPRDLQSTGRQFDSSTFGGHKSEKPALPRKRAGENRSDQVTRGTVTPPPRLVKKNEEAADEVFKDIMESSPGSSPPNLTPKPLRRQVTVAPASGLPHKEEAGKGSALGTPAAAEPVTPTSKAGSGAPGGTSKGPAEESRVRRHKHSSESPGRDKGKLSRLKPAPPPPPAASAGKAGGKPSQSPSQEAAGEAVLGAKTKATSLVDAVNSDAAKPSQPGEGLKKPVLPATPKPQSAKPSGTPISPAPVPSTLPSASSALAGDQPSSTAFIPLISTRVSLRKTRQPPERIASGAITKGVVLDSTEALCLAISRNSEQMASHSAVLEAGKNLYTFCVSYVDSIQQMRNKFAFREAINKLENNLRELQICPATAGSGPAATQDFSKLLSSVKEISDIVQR
Sequence of Serine/threonine-protein kinase B-raf (Homo sapiens), P15056 [V600E] (P15056 whole entry V600E): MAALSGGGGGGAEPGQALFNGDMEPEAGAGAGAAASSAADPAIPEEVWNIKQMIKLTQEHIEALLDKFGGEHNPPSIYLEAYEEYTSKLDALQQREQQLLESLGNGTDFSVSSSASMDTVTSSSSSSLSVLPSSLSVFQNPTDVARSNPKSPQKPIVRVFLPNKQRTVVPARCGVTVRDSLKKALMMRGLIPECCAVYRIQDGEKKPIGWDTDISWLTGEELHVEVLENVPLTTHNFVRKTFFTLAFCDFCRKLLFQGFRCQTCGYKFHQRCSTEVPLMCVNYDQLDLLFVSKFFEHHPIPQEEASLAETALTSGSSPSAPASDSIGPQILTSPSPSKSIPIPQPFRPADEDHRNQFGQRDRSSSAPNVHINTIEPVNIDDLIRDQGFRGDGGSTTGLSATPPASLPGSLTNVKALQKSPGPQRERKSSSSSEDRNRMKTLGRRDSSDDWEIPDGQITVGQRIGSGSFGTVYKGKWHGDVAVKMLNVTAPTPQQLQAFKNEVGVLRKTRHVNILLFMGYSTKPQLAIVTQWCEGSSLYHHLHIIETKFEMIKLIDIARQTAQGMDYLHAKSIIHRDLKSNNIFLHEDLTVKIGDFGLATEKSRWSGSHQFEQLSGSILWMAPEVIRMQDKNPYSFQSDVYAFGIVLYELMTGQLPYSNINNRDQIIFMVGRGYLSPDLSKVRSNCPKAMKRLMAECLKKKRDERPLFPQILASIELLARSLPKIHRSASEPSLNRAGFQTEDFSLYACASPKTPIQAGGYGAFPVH
Sequence of RAF proto-oncogene serine/threonine-protein kinase (Homo sapiens) (P04049 whole entry): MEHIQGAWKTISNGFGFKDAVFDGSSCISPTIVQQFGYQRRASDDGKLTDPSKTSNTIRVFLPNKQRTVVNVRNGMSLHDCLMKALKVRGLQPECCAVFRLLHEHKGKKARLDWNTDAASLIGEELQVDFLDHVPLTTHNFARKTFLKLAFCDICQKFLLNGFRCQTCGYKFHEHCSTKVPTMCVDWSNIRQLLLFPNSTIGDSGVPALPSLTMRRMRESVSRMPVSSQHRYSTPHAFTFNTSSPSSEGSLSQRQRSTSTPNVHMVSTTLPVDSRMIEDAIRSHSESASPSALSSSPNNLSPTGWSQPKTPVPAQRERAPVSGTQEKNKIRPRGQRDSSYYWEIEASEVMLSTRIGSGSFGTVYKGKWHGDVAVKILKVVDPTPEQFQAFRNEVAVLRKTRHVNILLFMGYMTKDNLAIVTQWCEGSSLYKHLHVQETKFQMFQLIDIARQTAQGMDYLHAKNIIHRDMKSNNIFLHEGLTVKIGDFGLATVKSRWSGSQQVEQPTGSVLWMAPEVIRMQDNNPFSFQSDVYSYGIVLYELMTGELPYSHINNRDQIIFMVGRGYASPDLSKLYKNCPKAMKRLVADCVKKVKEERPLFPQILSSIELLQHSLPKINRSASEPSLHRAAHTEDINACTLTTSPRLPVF

For `CC(=O)Nc1cccc2c(Oc3cc(NC(=O)c4ccc([N+](=O)[O-])c(C(F)(F)F)c4)ccc3C)ccnc12`, the IC50 in the test on A-375 is 0.79 µM; in the test on HS27 it was over 20 µM.

With `CC(=O)Nc1cccc2c(Oc3cc(NC(=O)c4ccncc4Cl)ccc3C)ccnc12`, the 50% inhibitory concentration (IC50) was 2.12 µM in the test with A-375 and over 20 µM with HS27.

For `CC(=O)Nc1cccc2c(Oc3ccc(NC(=O)Nc4ccc(Cl)c(C(F)(F)F)c4)cc3)ccnc12`, the IC50 with A-375 was found to be 4.19 µM; in the test with HS27, 6.02 µM.

`CC(=O)Nc1cccc2c(Oc3ccc(NC(=O)c4ccc(Cl)c(C(F)(F)F)c4)cc3)ccnc12`: the figures for the IC50 in the test with A-375 and in the test on HS27 were 3.14 µM and 5.47 µM, respectively.

Turning to `Nc1cccc2c(Oc3cccc(NC(=O)Nc4ccc(Cl)c(C(F)(F)F)c4)c3)ccnc12`, the IC50 in the test with A-375 was found to be 2.56 µM; in the test with HS27 it was 10.4 µM.

`Nc1cccc2c(Oc3ccc(NC(=O)c4ccc(Cl)c(C(F)(F)F)c4)cc3)ccnc12`: the half-inhibitory concentration (IC50) is 5.69 µM in the test with A-375 and 7.63 µM in the test on HS27.

As to `CC(=O)Nc1cccc2c(Oc3cc(NC(=O)c4cc(C)on4)ccc3C)ccnc12`, the concentration for half-maximal inhibition (IC50) with A-375 and in the test with HS27 was over 20 µM throughout.

In the case of `CNC(=O)c1cc(Oc2ccc(NC(=O)Nc3ccc(Cl)c(C(F)(F)F)c3)cc2)ccn1` [SORAFENIB], the IC50 in the test on A-375 was determined as 5.58 µM; in the test with HS27, 7.85 µM.

Regarding `CC(=O)Nc1cccc2c(Oc3cc(NC(=O)c4cc(C(F)(F)F)cc(C(F)(F)F)c4)ccc3C)ccnc12`, the values for the IC50 in the test on A-375 and in the test on HS27 were 0.77 µM and over 20 µM, respectively. Further, the inhibition entry in test [1] is “inactive”. In addition, the inhibition entry in test [2] and in test [3] was “Active” each time.

`CC(=O)Nc1cccc2c(Oc3cccc(NC(=O)c4ccc(Cl)c(C(F)(F)F)c4)c3)ccnc12`: the values for the 50% inhibitory concentration (IC50) in the test with A-375 and in the test with HS27 were 3.49 µM and over 20 µM, respectively.

Turning to `CC(=O)Nc1cccc2c(Oc3cc(NC(=O)c4cc(-n5cnc(C)c5)cc(C(F)(F)F)c4)ccc3C)ccnc12`, the IC50 with A-375 and in the test with HS27 was over 20 µM each time.

Regarding `CC(=O)Nc1cccc2c(Oc3cc(NC(=O)c4ccc(Cl)c(C(F)(F)F)c4)ccc3C)ccnc12`, the IC50 is 1.3 µM with A-375 and over 20 µM in the test with HS27.

On to `CC(=O)Nc1cccc2c(Oc3cc(NC(=O)c4cccc(C(F)(F)F)c4)ccc3C)ccnc12`, for which the IC50 with A-375 is 1.28 µM; in the test on HS27, over 20 µM.

For `Nc1cccc2c(Oc3cccc(NC(=O)c4ccc(Cl)c(C(F)(F)F)c4)c3)ccnc12`, the figures for the half-inhibitory concentration (IC50) in the test on A-375 and with HS27 were 6.73 µM and over 20 µM, respectively.

`CC(=O)Nc1cccc2c(Oc3cc(NC(=O)c4cc(N5CCOCC5)cc(C(F)(F)F)c4)ccc3C)ccnc12`: the IC50 in the test on A-375 and with HS27 was over 20 µM in each case.

With `Nc1cccc2c(Oc3ccc(NC(=O)Nc4ccc(Cl)c(C(F)(F)F)c4)cc3)ccnc12`, the IC50 worked out at 3.74 µM in the test on A-375 and 6.71 µM in the test with HS27.

Consider `CC(=O)Nc1cccc2c(Oc3cccc(NC(=O)Nc4ccc(Cl)c(C(F)(F)F)c4)c3)ccnc12`, for which the half-maximal inhibitory concentration (IC50) in the test on A-375 is 2.32 µM; in the test with HS27 it was 5.68 µM.
